Reference: patent publication US11697648B2, “Fused pyrimidine pyridinone compounds as JAK inhibitors” (THERAVANCE BIOPHARMA R&D IP, LLC, priority 2019, dated 2023)

Key:
JAK3 = JAK3 (Homo sapiens (Human), UniProt P52333); assay: Biochemical JAK3 kinase assay (LanthaScreen); settings: for JAK3 (pKi)-JAK1 (pKi): selectivity JAK3 over JAK1, difference of pKi
Method in brief: (§1)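 GST-JAK + GFP-STAT1 peptide, HEPES pH 7.5/MgCl2/EGTA/Brij-35 buffer; cpd preincubation 1 h RT; ATP start, 1 h RT; stop with 10 mM EDTA + 2 nM Tb-anti-pSTAT1; TR-FRET 520/495. 4-parameter IC50 → pKi (Cheng-Prusoff).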

JAK1 = JAK1 (Homo sapiens (Human), UniProt P23458); assay: Biochemical JAK1 kinase assay (LanthaScreen)
Method in brief: as §1

[1] = tested on: IL-2 stimulated STAT5 phosphorylation in Tall-1 human T cell line (JAK3); assay: Cellular JAK3 potency assay: inhibition of IL-2 stimulated pSTAT5 in Tall-1 T cells; assay type: cell-based; settings: IL-2 stimulated pSTAT5, Tall-1 T cells
Method in brief: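 AlphaLISA SureFire Ultra measures STAT5 Tyr694/699 phosphorylation in lysed Tall-1 human T cells. Cells were exposed to compound for 1 h at 37 °C before a 30 min IL-2 challenge (300 ng/ml final). Values are pIC50 means with standard deviation from signal-versus-concentration curves.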

Tyk2 = Tyk2 (Homo sapiens (Human), UniProt P29597); assay: Biochemical Tyk2 kinase assay (LanthaScreen)
Method in brief: as §1

JAK2 = JAK2 (Homo sapiens (Human), UniProt O60674); assay: Biochemical JAK2 kinase assay (LanthaScreen)
Method in brief: as §1

Caco-2 cell monolayers = assay: Caco-2 permeation assay; assay type: in vitro ADME; settings: 5 μM, A-B direction, with Verapamil (25 μM)
Method in brief: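 Passive A-to-B permeability with P-gp inhibited by verapamil (25 μM); compound at 5 μM, n=2. Both compartments sampled at t0 and t120 and quantified by LC-MS/MS, giving apparent permeability in cm/sec from flux, area and concentration.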

JAK2, sequence (O60674 whole entry): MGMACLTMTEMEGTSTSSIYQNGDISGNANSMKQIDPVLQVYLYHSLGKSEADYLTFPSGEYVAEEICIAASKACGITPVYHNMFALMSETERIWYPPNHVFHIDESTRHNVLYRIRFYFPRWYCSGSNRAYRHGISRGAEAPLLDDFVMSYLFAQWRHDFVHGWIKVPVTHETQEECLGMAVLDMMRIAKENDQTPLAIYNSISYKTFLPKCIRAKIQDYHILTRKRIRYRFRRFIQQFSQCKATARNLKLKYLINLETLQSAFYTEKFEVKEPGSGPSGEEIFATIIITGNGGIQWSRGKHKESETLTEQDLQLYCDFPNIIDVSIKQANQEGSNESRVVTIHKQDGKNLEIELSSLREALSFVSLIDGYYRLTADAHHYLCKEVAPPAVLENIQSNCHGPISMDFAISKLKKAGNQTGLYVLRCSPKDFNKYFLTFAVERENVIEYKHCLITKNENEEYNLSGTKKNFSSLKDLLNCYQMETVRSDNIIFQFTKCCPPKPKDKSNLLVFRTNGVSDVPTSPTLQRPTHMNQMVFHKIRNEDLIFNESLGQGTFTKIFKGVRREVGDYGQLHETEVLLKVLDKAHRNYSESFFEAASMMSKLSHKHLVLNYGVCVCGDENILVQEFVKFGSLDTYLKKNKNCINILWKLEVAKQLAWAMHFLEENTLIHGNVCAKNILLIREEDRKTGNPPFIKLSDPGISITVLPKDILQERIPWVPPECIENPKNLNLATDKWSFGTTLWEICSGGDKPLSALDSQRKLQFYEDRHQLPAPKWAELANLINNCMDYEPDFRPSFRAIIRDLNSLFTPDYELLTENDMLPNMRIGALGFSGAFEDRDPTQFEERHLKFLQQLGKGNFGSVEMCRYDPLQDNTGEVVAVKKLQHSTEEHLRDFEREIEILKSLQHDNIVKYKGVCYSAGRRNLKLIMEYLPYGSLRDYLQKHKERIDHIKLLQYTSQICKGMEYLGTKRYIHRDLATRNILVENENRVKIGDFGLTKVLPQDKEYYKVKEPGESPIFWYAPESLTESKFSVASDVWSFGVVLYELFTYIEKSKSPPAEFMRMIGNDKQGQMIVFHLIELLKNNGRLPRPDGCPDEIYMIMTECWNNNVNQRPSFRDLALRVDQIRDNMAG
Tyk2, sequence (P29597 whole entry): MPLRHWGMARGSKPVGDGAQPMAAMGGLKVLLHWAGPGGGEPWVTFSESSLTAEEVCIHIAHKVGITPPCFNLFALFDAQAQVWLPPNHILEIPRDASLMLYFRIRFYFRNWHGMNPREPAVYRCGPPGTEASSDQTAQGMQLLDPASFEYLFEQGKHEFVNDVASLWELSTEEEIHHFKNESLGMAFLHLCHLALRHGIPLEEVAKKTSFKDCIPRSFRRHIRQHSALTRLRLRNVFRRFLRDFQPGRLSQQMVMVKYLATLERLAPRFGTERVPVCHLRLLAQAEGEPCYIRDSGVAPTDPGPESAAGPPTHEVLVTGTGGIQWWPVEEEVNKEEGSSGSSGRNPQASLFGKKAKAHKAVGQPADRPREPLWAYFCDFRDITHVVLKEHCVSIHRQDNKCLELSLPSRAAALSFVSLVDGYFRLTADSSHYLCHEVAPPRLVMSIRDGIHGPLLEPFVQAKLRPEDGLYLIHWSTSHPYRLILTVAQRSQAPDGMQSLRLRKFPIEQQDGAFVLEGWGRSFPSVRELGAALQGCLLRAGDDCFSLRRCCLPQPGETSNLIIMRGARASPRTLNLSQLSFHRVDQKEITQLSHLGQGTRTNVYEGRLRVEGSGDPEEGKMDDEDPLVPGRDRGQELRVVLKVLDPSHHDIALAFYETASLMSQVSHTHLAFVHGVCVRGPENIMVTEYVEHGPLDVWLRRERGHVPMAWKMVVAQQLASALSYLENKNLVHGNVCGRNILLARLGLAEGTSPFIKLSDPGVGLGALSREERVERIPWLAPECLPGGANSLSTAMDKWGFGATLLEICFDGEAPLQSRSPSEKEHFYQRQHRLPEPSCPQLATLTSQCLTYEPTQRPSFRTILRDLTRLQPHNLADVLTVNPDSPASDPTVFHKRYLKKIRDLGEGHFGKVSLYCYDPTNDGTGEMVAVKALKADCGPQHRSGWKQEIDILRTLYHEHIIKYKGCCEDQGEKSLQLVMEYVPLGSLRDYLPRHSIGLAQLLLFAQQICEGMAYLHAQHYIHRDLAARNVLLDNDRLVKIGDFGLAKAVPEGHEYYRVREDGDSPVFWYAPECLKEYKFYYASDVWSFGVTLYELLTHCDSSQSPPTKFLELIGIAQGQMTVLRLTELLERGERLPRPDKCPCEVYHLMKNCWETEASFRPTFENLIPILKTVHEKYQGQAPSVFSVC
JAK3, sequence (P52333 whole entry): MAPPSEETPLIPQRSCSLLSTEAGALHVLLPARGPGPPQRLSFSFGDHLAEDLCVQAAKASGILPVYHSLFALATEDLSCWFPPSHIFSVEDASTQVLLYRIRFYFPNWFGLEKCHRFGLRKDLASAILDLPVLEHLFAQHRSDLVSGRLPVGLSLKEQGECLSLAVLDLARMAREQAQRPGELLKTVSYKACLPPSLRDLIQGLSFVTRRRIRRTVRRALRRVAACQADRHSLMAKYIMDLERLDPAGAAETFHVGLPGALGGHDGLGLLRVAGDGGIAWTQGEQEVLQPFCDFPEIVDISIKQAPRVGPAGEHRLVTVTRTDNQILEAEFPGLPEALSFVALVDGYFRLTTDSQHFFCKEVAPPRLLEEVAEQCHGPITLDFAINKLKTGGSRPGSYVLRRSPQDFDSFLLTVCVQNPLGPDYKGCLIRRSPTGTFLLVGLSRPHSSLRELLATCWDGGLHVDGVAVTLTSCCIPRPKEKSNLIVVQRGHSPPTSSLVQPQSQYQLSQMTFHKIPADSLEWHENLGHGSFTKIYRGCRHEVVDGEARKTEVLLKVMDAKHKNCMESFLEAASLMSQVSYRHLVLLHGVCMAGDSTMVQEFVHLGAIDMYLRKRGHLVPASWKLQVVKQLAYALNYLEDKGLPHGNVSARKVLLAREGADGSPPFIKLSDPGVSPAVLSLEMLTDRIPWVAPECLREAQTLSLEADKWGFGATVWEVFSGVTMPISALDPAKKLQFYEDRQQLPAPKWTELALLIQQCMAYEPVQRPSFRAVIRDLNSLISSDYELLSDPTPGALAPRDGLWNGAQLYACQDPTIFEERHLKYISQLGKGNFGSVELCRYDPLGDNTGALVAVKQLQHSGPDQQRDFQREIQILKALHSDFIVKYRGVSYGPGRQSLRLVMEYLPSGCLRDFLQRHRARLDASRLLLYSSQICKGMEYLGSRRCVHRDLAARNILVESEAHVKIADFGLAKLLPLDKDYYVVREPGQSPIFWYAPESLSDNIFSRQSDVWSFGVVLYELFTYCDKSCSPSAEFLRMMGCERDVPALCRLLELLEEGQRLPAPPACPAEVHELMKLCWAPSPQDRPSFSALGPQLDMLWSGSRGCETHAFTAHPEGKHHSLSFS
JAK1, sequence (P23458 whole entry): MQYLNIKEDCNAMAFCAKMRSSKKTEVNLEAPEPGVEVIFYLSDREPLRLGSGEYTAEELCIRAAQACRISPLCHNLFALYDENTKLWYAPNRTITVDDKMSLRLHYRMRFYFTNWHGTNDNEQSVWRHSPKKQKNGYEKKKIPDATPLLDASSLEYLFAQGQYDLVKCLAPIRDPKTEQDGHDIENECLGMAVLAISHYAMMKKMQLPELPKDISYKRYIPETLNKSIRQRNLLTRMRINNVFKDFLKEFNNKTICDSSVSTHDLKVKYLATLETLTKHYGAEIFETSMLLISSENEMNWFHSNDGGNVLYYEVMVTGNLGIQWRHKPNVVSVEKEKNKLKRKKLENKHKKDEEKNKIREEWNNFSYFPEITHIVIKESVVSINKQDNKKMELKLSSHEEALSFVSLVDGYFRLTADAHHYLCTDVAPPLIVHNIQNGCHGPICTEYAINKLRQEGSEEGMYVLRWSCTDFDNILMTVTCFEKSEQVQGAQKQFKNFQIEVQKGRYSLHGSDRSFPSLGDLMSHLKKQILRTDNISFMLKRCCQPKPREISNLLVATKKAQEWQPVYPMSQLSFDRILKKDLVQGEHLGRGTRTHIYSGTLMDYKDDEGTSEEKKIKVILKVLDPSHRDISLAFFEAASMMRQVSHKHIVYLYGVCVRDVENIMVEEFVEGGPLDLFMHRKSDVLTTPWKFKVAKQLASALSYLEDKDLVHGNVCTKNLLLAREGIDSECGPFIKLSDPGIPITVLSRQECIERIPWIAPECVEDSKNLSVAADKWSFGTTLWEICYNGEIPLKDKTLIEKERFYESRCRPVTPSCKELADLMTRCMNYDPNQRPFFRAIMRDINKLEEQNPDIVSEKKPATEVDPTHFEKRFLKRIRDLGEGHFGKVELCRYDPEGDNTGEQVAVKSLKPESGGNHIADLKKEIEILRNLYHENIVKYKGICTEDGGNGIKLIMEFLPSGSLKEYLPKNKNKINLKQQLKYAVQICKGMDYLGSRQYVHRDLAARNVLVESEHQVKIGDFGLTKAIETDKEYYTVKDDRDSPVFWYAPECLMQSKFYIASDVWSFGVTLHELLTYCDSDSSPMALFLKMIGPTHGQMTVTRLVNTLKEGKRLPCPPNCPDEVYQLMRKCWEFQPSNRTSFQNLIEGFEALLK

SMILES	JAK 3 (pKi) (JAK3)	JAK3 (pKi)-JAK1 (pKi) (JAK3)	JAK 1 (pKi) (JAK1)	Tall-1 (pIC50) [1]	Tyk 2 (pKi) (Tyk2)	JAK 2 (pKi) (JAK2)	Caco Kp (Caco-2 cell monolayers)
C=CC(=O)N1CCN(CCn2c(=O)ccc3cnc(Nc4ccc(N5CCN(S(C)(=O)=O)CC5)cc4)nc32)[C@@H](CC)C1 [Example 189]	A (A represents a pKi value≥10 (Ki≤0.1 nM))	A (A represents a value of 3 or above)	E (E represents a pKi value of 7 or below (Ki of 100 nM or above))	B (B represents a pC50 value between 6.7 (included) and 7.5 (IC50 between 200 nM and 32 nM))	E (E represents a pKi value of 7 or below (Ki of 100 nM or above))	E (E represents a pKi value of 7 or below (Ki of 100 nM or above))	B (B represents a value between 5×10^−6 and 10×10^−6 cm/sec)
C=CC(=O)N1CCN(CCn2c(=O)ccc3cnc(Nc4ccc(N5CCN(C(=O)OC)CC5)cc4)nc32)[C@@H](CC)C1 [Example 190]	A (A represents a pKi value≥10 (Ki≤0.1 nM))	A (A represents a value of 3 or above)	E (E represents a pKi value of 7 or below (Ki of 100 nM or above))	B (B represents a pC50 value between 6.7 (included) and 7.5 (IC50 between 200 nM and 32 nM))	E (E represents a pKi value of 7 or below (Ki of 100 nM or above))	E (E represents a pKi value of 7 or below (Ki of 100 nM or above))	C (C represents a value between 10×10^−6 and 30×10^−6 cm/sec)
C=CC(=O)N1CCN(CCn2c(=O)ccc3cnc(Nc4ccc(N5CCN(S(=O)(=O)CCOC)CC5)cc4)nc32)[C@@H](CC)C1 [Example 191]	A (A represents a pKi value≥10 (Ki≤0.1 nM))	A (A represents a value of 3 or above)	E (E represents a pKi value of 7 or below (Ki of 100 nM or above))	B (B represents a pC50 value between 6.7 (included) and 7.5 (IC50 between 200 nM and 32 nM))	E (E represents a pKi value of 7 or below (Ki of 100 nM or above))	E (E represents a pKi value of 7 or below (Ki of 100 nM or above))	B (B represents a value between 5×10^−6 and 10×10^−6 cm/sec)
C=CC(=O)N1CCN(CCn2c(=O)ccc3cnc(Nc4ccc(N5CCN(C(=O)CCSC)CC5)cc4)nc32)[C@@H](CC)C1 [Example 192]	B (B represents pKi value between 9 and 10 (Ki between 1 nM and 0.1 nM))	A (A represents a value of 3 or above)	E (E represents a pKi value of 7 or below (Ki of 100 nM or above))	B (B represents a pC50 value between 6.7 (included) and 7.5 (IC50 between 200 nM and 32 nM))	E (E represents a pKi value of 7 or below (Ki of 100 nM or above))	E (E represents a pKi value of 7 or below (Ki of 100 nM or above))	C (C represents a value between 10×10^−6 and 30×10^−6 cm/sec)
C=CC(=O)N1CCN(CCn2c(=O)ccc3cnc(Nc4ccc(N5CCN(C)CC5)cc4)nc32)[C@@H](CO)C1 [Example 193]	B (B represents pKi value between 9 and 10 (Ki between 1 nM and 0.1 nM))	A (A represents a value of 3 or above)	E (E represents a pKi value of 7 or below (Ki of 100 nM or above))	B (B represents a pC50 value between 6.7 (included) and 7.5 (IC50 between 200 nM and 32 nM))	E (E represents a pKi value of 7 or below (Ki of 100 nM or above))	E (E represents a pKi value of 7 or below (Ki of 100 nM or above))	A (A represents a value below 5×10^−6 cm/sec)
C=CC(=O)N1CCN(CCn2c(=O)ccc3cnc(Nc4cnn(Cc5ccccc5)c4)nc32)[C@@H](CC)C1 [Example 194]	B (B represents pKi value between 9 and 10 (Ki between 1 nM and 0.1 nM))	A (A represents a value of 3 or above)	E (E represents a pKi value of 7 or below (Ki of 100 nM or above))	B (B represents a pC50 value between 6.7 (included) and 7.5 (IC50 between 200 nM and 32 nM))	E (E represents a pKi value of 7 or below (Ki of 100 nM or above))	E (E represents a pKi value of 7 or below (Ki of 100 nM or above))	C (C represents a value between 10×10^−6 and 30×10^−6 cm/sec)
C=CC(=O)N1CCN(CCn2c(=O)ccc3cnc(Nc4cnn(C5CCN(C)CC5)c4)nc32)[C@@H](CC)C1 [Example 196]	B (B represents pKi value between 9 and 10 (Ki between 1 nM and 0.1 nM))	A (A represents a value of 3 or above)	E (E represents a pKi value of 7 or below (Ki of 100 nM or above))	B (B represents a pC50 value between 6.7 (included) and 7.5 (IC50 between 200 nM and 32 nM))	E (E represents a pKi value of 7 or below (Ki of 100 nM or above))	E (E represents a pKi value of 7 or below (Ki of 100 nM or above))	A (A represents a value below 5×10^−6 cm/sec)
C=CC(=O)N1CCN(CCn2c(=O)ccc3cnc(Nc4cnn(C5CCOCC5)c4)nc32)[C@@H](CC)C1 [Example 197]	B (B represents pKi value between 9 and 10 (Ki between 1 nM and 0.1 nM))	A (A represents a value of 3 or above)	E (E represents a pKi value of 7 or below (Ki of 100 nM or above))	B (B represents a pC50 value between 6.7 (included) and 7.5 (IC50 between 200 nM and 32 nM))	E (E represents a pKi value of 7 or below (Ki of 100 nM or above))	E (E represents a pKi value of 7 or below (Ki of 100 nM or above))	A (A represents a value below 5×10^−6 cm/sec)
C=CC(=O)N1CCN(CCn2c(=O)ccc3cnc(Nc4ccc(N5CCN(C(=O)C[S+]([O-])CC)CC5)cc4)nc32)[C@@H](CC)C1 (some centres unmarked) [Example 198]	B (B represents pKi value between 9 and 10 (Ki between 1 nM and 0.1 nM))	A (A represents a value of 3 or above)	E (E represents a pKi value of 7 or below (Ki of 100 nM or above))	C (C represents a pIC50 value between 6 and 6.7 (IC50 between 1 μM and 200 nM))	E (E represents a pKi value of 7 or below (Ki of 100 nM or above))	E (E represents a pKi value of 7 or below (Ki of 100 nM or above))	A (A represents a value below 5×10^−6 cm/sec)
C=CC(=O)N1CCN(C(C)Cn2c(=O)ccc3cnc(Nc4ccc(N5CCN(C(C)=O)CC5)cc4)nc32)CC1 (centres unmarked) [Example 201]	B (B represents pKi value between 9 and 10 (Ki between 1 nM and 0.1 nM))	A (A represents a value of 3 or above)	E (E represents a pKi value of 7 or below (Ki of 100 nM or above))	B (B represents a pC50 value between 6.7 (included) and 7.5 (IC50 between 200 nM and 32 nM))	E (E represents a pKi value of 7 or below (Ki of 100 nM or above))	E (E represents a pKi value of 7 or below (Ki of 100 nM or above))	A (A represents a value below 5×10^−6 cm/sec)
C=CC(=O)N1CCN(CCn2c(=O)ccc3cnc(Nc4cnn(CCF)c4)nc32)[C@@H](CC)C1 [Example 202]	B (B represents pKi value between 9 and 10 (Ki between 1 nM and 0.1 nM))	A (A represents a value of 3 or above)	E (E represents a pKi value of 7 or below (Ki of 100 nM or above))	B (B represents a pC50 value between 6.7 (included) and 7.5 (IC50 between 200 nM and 32 nM))	E (E represents a pKi value of 7 or below (Ki of 100 nM or above))	E (E represents a pKi value of 7 or below (Ki of 100 nM or above))	A (A represents a value below 5×10^−6 cm/sec)
